Data set [1] in a line: Drug level in rat liver microsomes assessed as CYP450-mediated metabolite formation treated with N-benzyl-1-butyl-5-fluoro-7-morpholino-4-oxo-1,4-dihydroquinoline-3-carboxamide at 100 uM using NADPH/H+ as co-factor after 30 to 90 mins by LC/MSD iom trap method. Type of data set: ADME. For orientation: Liver microsomes are vesicles of endoplasmic reticulum, rich in cytochrome P450 enzymes.

A short description of data set [2]: Drug level in rat liver cytosol assessed as CYP450-mediated metabolite formation treated with N-benzyl-1-butyl-5-fluoro-7-morpholino-4-oxo-1,4-dihydroquinoline-3-carboxamide at 100 uM using NADPH/H+ as co-factor after 30 to 90 mins by LC/MSD iom trap method. The data set is classed as ADME, subcellular.
Data set [3] in a line: Cytotoxicity against mouse J774.1 cells after 24 hrs by Alamar blue assay. The data set is classed as cell-based.
Data set [4] can be described thus: Solubility of the compound in RPMI-1640 medium. Type of data set: physicochemical.
Data set [5] is described as follows: Octanol/water partition co-efficient, log P of the compound by HPLC based method. The data set is classed as physicochemical.
Data set [6] is described as follows: Selectivity index, ratio of CC50 for mouse J774.1 cells to IC50 for trypomastigote forms of Trypanosoma brucei brucei TC 221 assessed as parasite growth inhibition after 48 hrs. Conditions: read-out: Ratio CC50/IC50; call rule not given here. The data set is classed as toxicity.
Data set [7] deals with Trypanosoma brucei brucei. The experiment in a line: Antitrypanosomal activity against trypomastigote forms of Trypanosoma brucei brucei TC 221 assessed as parasite growth inhibition after 72 hrs by Alamar blue assay. The data set is classed as functional, organism-based. Conditions: TC 221, 72 h. (In general: Resazurin is reduced to fluorescent resorufin, in cell work by metabolically active cells.)

The test system of data set [8] is Trypanosoma brucei brucei. Briefly: Antitrypanosomal activity against trypomastigote forms of Trypanosoma brucei brucei TC 221 assessed as parasite growth inhibition after 48 hrs by Alamar blue assay. The data set is classed as functional, organism-based. Conditions: TC 221, 48 h.
Data set [9] is described as follows: Drug level in rat liver cytosol assessed as CYP450-mediated metabolite formation treated with 1-Butyl-5-fluoro-N-(4-fluorobenzyl)-7-morpholino-4-oxo-1,4-dihydroquinoline-3-carboxamide at 100 uM using NADPH/H+ as co-factor after 30 to 90 mins by LC/MSD iom trap method. Type of data set: ADME, subcellular.
Data set [10] in a line: Drug level in rat liver microsomes assessed as CYP450-mediated metabolite formation treated with 1-Butyl-5-fluoro-N-(4-fluorobenzyl)-7-morpholino-4-oxo-1,4-dihydroquinoline-3-carboxamide at 100 uM using NADPH/H+ as co-factor after 30 to 90 mins by LC/MSD iom trap method. The data set is classed as ADME.
Data set [11] can be described thus: Thermodynamic equilibrium solubility of the compound in pH 7.4 phosphate buffered saline after 24 hrs by shake flask method. Conditions: read-out: Therm_solubility. The data set is classed as physicochemical.
Data set [12] is described as follows: Stability in rat liver cytosol assessed as compound turnover per mg protein. Type of data set: ADME, subcellular.
A short description of data set [13]: Half life in rat liver cytosol. Type of data set: ADME, subcellular.
A short description of data set [14]: Drug uptake in brain of B6/J mouse at 19.3 +/- 2.3 MBq, iv after 60 mins by autoradiography. Conditions: in vivo, 1 h. The data set is classed as ADME, organism-based.
Data set [15] is described as follows: Drug level in rat liver cytosol assessed as CYP450-mediated metabolite formation treated with 1-Butyl-6-fluoro-N-(4-fluorobenzyl)-7-morpholino-4-oxo-1,4-dihydroquinoline-3-carboxamide at 100 uM using NADPH/H+ as co-factor after 30 to 90 mins by LC/MSD iom trap method. Type of data set: ADME, subcellular.
A short description of data set [16]: Drug level in rat liver microsomes assessed as CYP450-mediated metabolite formation treated with 1-Butyl-6-fluoro-N-(4-fluorobenzyl)-7-morpholino-4-oxo-1,4-dihydroquinoline-3-carboxamide at 100 uM using NADPH/H+ as co-factor after 30 to 90 mins by LC/MSD iom trap method. The data set is classed as ADME.

≈ marks a conversion by molar mass, not a printed value. Bounds are passed on as bounds.

As for `Cn1cc(C(N)=O)c(=O)c2c(F)cc(N3CCOCC3)cc21`, the Drug metabolism entry in data set [1] and in data set [2] was “Metabolite_Detected” in each case.
With `CCCCn1cc(C(=O)NCc2ccccc2)c(=O)c2c(F)c(F)c(N3CCOCC3)cc21`, the 50% cytotoxic concentration (CC50) (commonly the concentration at which the toxic effect on the cells reaches its halfway point) at 24 h in [3] was more than 25000 nM. Besides, in [4], the solubility result is “Insoluble”. Further, in [5], the log partition coefficient (logP) (in general, the decadic logarithm of the partition coefficient of the neutral form, usually between octanol and water) came out at 3.97. For the same molecule, the selectivity ratio at 48 h in data set [6] was more than 625. Besides, the IC50 – broadly, the point on the concentration scale where inhibition reaches its midpoint – in [7] came to 30 nM; in data set [8] it was 40 nM.
With `CCn1cc(C(=O)NCc2ccc(F)cc2)c(=O)c2c(F)cc(N3CCOCC3)cc21`, the Drug metabolism result in data set [9] and in data set [10] was “Metabolite_Detected” each time.
Consider `O=C(NCc1ccccc1)c1cn(CCCF)c2cc(N3CCOCC3)c(F)cc2c1=O`, for which the cytotoxic concentration (CC50) at 24 h in data set [3] was found to be 42400 nM. Moreover, in data set [5], the logP was found to be 3.34. Also, the selectivity ratio at 48 h in data set [6] was found to be 353. In addition, the 50% inhibitory concentration (IC50) in data set [7] is 170 nM; in data set [8], 120 nM. In addition, the solubility thermodynamic at 24 h in [11] was found to be 1.41 µg/mL (≈ 3.19 µM).
For `CCCCn1cc(C(=O)NCc2ccc(F)cc2F)c(=O)c2cc(F)c(N3CCOCC3)cc21`, the CC50 at 24 h in [3] amounted to 59600 nM. Besides, the selectivity ratio at 48 h in data set [6] turned out to be 1990. Besides, the IC50 in data set [7] and in [8] was 30 nM each time. Besides, in data set [12], the Drug metabolism was 5.94 pmol/min/mg protein.
In data set [3], `CCCCn1cc(C(=O)NCc2ccccc2)c(=O)c2cc(OC)c(N3CCOCC3)cc21` gave a CC50 at 24 h of 42000 nM. The logP in data set [5] was determined as 3.73. For the same molecule, the selectivity ratio at 48 h in data set [6] was determined as 135. Besides, the IC50 was 240 nM in [7] and 310 nM in data set [8]. Moreover, the solubility thermodynamic at 24 h in data set [11] amounted to 2.73 µg/mL (≈ 6.07 µM).
Take `CCCCn1cc(C(=O)NCc2ccccc2)c(=O)c2cc(F)c(N3CCOCC3)cc21`: the half-life (in general, the time in which the quantity being followed falls by half) in data set [13] is 5.8 h. Besides, the Drug metabolism in [12] is given as 47.11 pmol/min/mg protein. Also, the solubility thermodynamic at 24 h in [11] stood at 0.005 µg/mL (≈ 0.0114 µM).
For `CCCCn1cc(C(=O)O)c(=O)c2c(F)cc(N3CCOCC3)cc21`, the Drug metabolism entry in [9] and in data set [10] was “Metabolite_Detected” in each case.
On to `O=C(NCc1ccccc1)c1cn(CCC[18F])c2cc(N3CCOCC3)c(F)cc2c1=O`, for which the Drug uptake result in data set [14] is “Active”.
Turning to `CCCCn1cc(C(=O)O)c(=O)c2cc(F)c(N3CCOCC3)cc21`, the Drug metabolism entry in [15] and in data set [16] was “Metabolite_Detected” each time.
Turning to `O=C(NCc1ccccc1)c1cn(CCCO)c2cc(N3CCOCC3)c(F)cc2c1=O`, the CC50 at 24 h in data set [3] came to 43100 nM. The molecule also registered a lipophilicity (logP) in data set [5] of 3.04. In addition, the selectivity ratio at 48 h in data set [6] was determined as 160. Besides, the IC50 in data set [7] amounted to 550 nM; in data set [8] it was 270 nM. Also, the solubility thermodynamic at 24 h in [11] is 18.7 µg/mL (≈ 42.5 µM).
Turning to `O=C(NCc1ccccc1)c1cn(CCCOCc2ccccc2)c2cc(N3CCOCC3)c(F)cc2c1=O`, the CC50 at 24 h in data set [3] is more than 100000 nM. The logP in data set [5] stood at 3.9.
As to `CCCCn1cc(C(=O)NCc2ccccc2)c(=O)c2ccc(N3CCOCC3)cc21`, in data set [3], the CC50 at 24 h is more than 100000 nM. Further, the logP in [5] was 3.51. In addition, in data set [6], the selectivity ratio at 48 h is more than 435. For the same molecule, the half-inhibitory concentration (IC50) in [7] turned out to be 200 nM; in data set [8], 230 nM. In data set [11], the solubility thermodynamic at 24 h was 1.36 µg/mL (≈ 3.24 µM).
With `CC(O)CCn1cc(C(=O)NCc2ccc(F)cc2)c(=O)c2cc(F)c(N3CCOCC3)cc21` (stereo not given), the Drug metabolism entry in data set [15] and in data set [16] was “Metabolite_Detected” throughout.
As to `Cn1cc(C(=O)NCc2ccc(F)cc2)c(=O)c2cc(F)c(N3CCOCC3)cc21`, the Drug metabolism entry in data set [15] and in [16] was “Metabolite_Detected” throughout.
`CCCCn1cc(C(N)=O)c(=O)c2c(F)cc(N3CCOCC3)cc21`: the Drug metabolism result in data set [1] and in data set [2] was “Metabolite_Detected” in each case.
In turn, `CCCCn1cc(C(=O)NCc2ccccc2F)c(=O)c2cc(F)c(N3CCOCC3)cc21` had a CC50 at 24 h in data set [3] of 37000 nM. In addition, the selectivity ratio at 48 h in [6] was 90. Further, the values for the IC50 in data set [7] and in data set [8] were 460 nM and 410 nM, respectively.
As for `CC(O)CCn1cc(C(=O)NCc2ccccc2)c(=O)c2c(F)cc(N3CCOCC3)cc21` (stereo not given), the Drug metabolism entry in [1] and in data set [2] was “Metabolite_Detected” in each case.
Consider `O=C(NCc1ccc(F)cc1)c1c[nH]c2cc(N3CCOCC3)cc(F)c2c1=O`, for which the Drug metabolism entry in [9] and in data set [10] was “Metabolite_Detected” in each case.
For the molecule `Cn1cc(C(=O)NCc2ccc(F)cc2)c(=O)c2c(F)cc(N3CCOCC3)cc21`, the Drug metabolism entry in data set [9] and in data set [10] was “Metabolite_Detected” throughout.
Molecule `CCCCn1cc(C(=O)NCc2ccccc2)c(=O)c2cc(C(F)(F)F)c(N3CCOCC3)cc21` gave a cytotoxic concentration (CC50) at 24 h in data set [3] of 78600 nM. The molecule also gave a logP in data set [5] of 4.18. Besides, the selectivity ratio at 48 h in [6] came out at 146. The half-maximal inhibitory concentration (IC50) in data set [7] was 590 nM; in data set [8], 540 nM.
Turning to `O=C(NCc1ccc(F)cc1)c1c[nH]c2cc(N3CCOCC3)c(F)cc2c1=O`, the Drug metabolism entry in [15] and in data set [16] was “Metabolite_Detected” throughout.
`CCn1cc(C(=O)NCc2ccccc2)c(=O)c2c(F)cc(N3CCOCC3)cc21`: the Drug metabolism result in data set [1] and in data set [2] was “Metabolite_Detected” in each case.
In [3], `CCCCn1cc(C(=O)NCc2ccccc2)c(=O)c2c(N(C)C)cc(N3CCOCC3)cc21` showed a CC50 at 24 h of 44000 nM. Besides, the selectivity ratio at 48 h in [6] is 24. Also, the 50% inhibitory concentration (IC50) in data set [7] stood at 4800 nM; in data set [8], 1850 nM.
Consider `CCCCn1cc(C(=O)NCc2ccccc2)c(=O)c2cc(F)c(N3CCOCC3)c(F)c21`, for which, in data set [3], the CC50 at 24 h is more than 20000 nM. The solubility entry in data set [4] is listed as “Insoluble”. The same molecule came in with a lipophilicity (logP) in [5] of 4.57. Further, in [6], the selectivity ratio at 48 h was more than 333. In addition, the results for the concentration for half-maximal inhibition (IC50) in [7] and in [8] were 200 nM and 60 nM, respectively.
Molecule `CCCCn1cc(C(=O)NCc2ccccc2)c(=O)c2c(OC)cc(N3CCOCC3)cc21` showed a 50% cytotoxic concentration (CC50) at 24 h in data set [3] of 51800 nM. Also, the selectivity ratio at 48 h in [6] was 68. For the same molecule, the IC50 in data set [7] turned out to be 650 nM; in data set [8] it was 760 nM.
Take `CCCCn1cc(C(=O)NCc2ccccc2)c(=O)c2ccc(N3CCOCC3)c(F)c21`: the cytotoxic concentration (CC50) at 24 h in [3] is more than 25000 nM. Also, the solubility entry in data set [4] is “Insoluble”. Moreover, the log partition coefficient (logP) in data set [5] came out at 4.09. In addition, in data set [6], the selectivity ratio at 48 h was more than 32. In addition, the IC50 in data set [7] is 860 nM; in data set [8] it was 790 nM. For the same molecule, in data set [11], the solubility thermodynamic at 24 h was 0.23 µg/mL (≈ 0.526 µM).

Values taken from ChEMBL document CHEMBL4152252, “Fluorine walk: The impact of fluorine in quinolone amides on their activity against African sleeping sickness” (Eur J Med Chem, 2018).
